Test results as given in patent publication US11000512B2, “Use of DDX3 inhibitors as antiproliferative agents” (AZIENDA OSPEDALIERA UNIVERSITARIA SENESE, priority 2016, dated 2021).

Columns and labels:
[1] = Parallel Artificial Membrane Permeability Assay (PAMPA), GI; type: in vitro ADME; conditions: GI (intestinal) PAMPA, value in brackets
Protocol: Parallel Artificial Membrane Permeability Assay (PAMPA). Donor solution (0.5 mM) was prepared by diluting 1 mM dimethylsulfoxide (DMSO) compound stock solution using phosphate buffer (pH 7.4, 0.025 M). Filters were coated with 5 μL of a 1% (w/v) dodecane solution of phosphatidylcholine prepared from CHCl3 solution 10% w/v, for intestinal permeability. Donor solution (150 μL) was added to each well of the filter plate. To each well of the acceptor plate were added 300 μL of solution (50% DMSO in phosphate buffer). All compounds were tested in three different plates on different days. The sandwich was incubated for 5 h at room temperature under gentle shaking. After the incubation time, the plates were separated, and samples were taken from both receiver and donor sides and analyzed using LC with UV detection at 280 nm.
LC analysis were performed with a Varian Prostar HPLC system (Varian Analytical Instruments, USA) equipped with a binary pump with a manual injection valve and model Prostar 325 UV-VIS Detector. Chromatographic separations were conducted using a Polaris C18-A column (150-4.6 mm, 5 μm particle size) at a flow rate of 0.8 mL min^−1 with a mobile phase composed of 60% ACN/40% H2O.
Permeability (Papp) for PAMPA was calculated according to the following equation, obtained from Wohnsland and Faller and Sugano et al. equation with some modification in order to obtain permeability values in cm s^−1,
where VA is the volume in the acceptor well, VD is the volume in the donor well (cm^3), A is the “effective area” of the membrane (cm^2), t is the incubation time (s) and r the ratio between drug concentration in the acceptor and equilibrium concentration of the drug in the total volume (VD+VA). Drug concentration is estimated by using the peak area integration.
Membrane retentions (%) were calculated according to the following equation: […]
where r is the ratio between drug concentration in the acceptor and equilibrium concentration, D, A, and Eq represented drug concentration in the donor, acceptor and equilibrium solution, respectively.

[2] = test system: Human Neuroblastoma cell line (SH-SY5Y); assay: Cytotoxicity test / growth inhibition, SH-SY5Y; type: cell-based; conditions: 48 hours, cell counting
Protocol: Cells were purchased from American Type Culture Collection (ATCC, Manassas, Va., USA). The LNCaP (ATCC® CRL-1740™), A549 (ATCC® CCL-185™), MDA-MB-231 (ATCC® CRM-HTB-26™), 22Rv1 (ATCC® CRL-2505™), HCT-116 (ATCC® CCL-247™) and PC3 (ATCC® CRL-1435™) cells were maintained in Roswell Park Memorial Institute 1640 medium (RPMI; Euroclone, ECB9006L) supplemented with 10% fetal bovine serum (Euroclone; ECS0180L), 2 mM L-glutamine, 100 units/mL penicillin and […] streptomycin at 37° C. in an atmosphere of 5% CO2/air. […]
(§1) Cell lines were seeded at appropriate densities in 2 mL growth medium in 6-wells culture plates 24 hours before the treatment with the inhibitor compounds. […] Cells were incubated 48 hours with drugs and, then, cell viability was evaluated.
(§2) Cells were detached from each well of the 6-wells plates with 300 μL of Trypsin and suspended in culture medium to a final volume of 1 mL. Cell viability was then assessed through cell counting. Cells were diluted in 1:50 ratio of an isotonic buffered diluent, Isoton (Backman Coulter), following the manufacturer's instructions, and counted using an automated cell counter (Z2 series Coulter Counter, Beckman Coulter). […]

[3] = Microsomal Stability Assay (HLM); type: in vitro ADME; conditions: human liver microsomes, 37° C., 60 min, NADPH-generating system; percentage of not metabolized compound
Description: (§3) For the quantification was used an LC-MS system consisted of a Varian apparatus (Varian Inc) including a vacuum solvent degassing unit, two pumps (212-LC), a Triple Quadrupole MSD (Mod. 320-LC) mass spectrometer with ES interface and Varian MS Workstation System Control Vers. 6.9 software. Chromatographic separation was obtained using a Pursuit C18 column (50×2.0 mm) (Varian) with 3 μm particle size and gradient elution: eluent A being ACN and eluent B consisting of water. […] The flow rate was 0.2 mL min^−1 and injection volume was 5 μL. The instrument operated in positive mode and parameters were: detector 1850 V, drying gas pressure 25.0 psi, desolvation temperature 300.0° C., nebulizing gas 40.0 psi, needle 5000 V and shield 600 V. Nitrogen was used as nebulizer gas and drying gas. Collision induced dissociation was performed using Argon as the collision gas at a pressure of 1.8 mTorr in the collision cell. Microsomal Stability Assay. […] The reaction was stopped by cooling on ice and adding 1.0 mL of acetonitrile. The reaction mixtures were then centrifuged, and the parent drug and metabolites were subsequently determined by LC-UV-MS. Chromatographic analysis was performed with an Agilent 1100 LC/MSD VL system (G1946C) (Agilent Technologies, Palo Alto, Calif.) constituted by a vacuum solvent degassing unit, a binary high-pressure gradient pump, an 1100 series UV detector, and an 1100 MSD model VL benchtop mass spectrometer.
Chromatographic separation was obtained using a Varian Polaris C18-A column (150-4.6 mm, 5 μm particle size) and gradient elution: eluent A being ACN and eluent B consisting of water. […] The flow rate was 0.8 mL min^−1 and injection volume was 20 μL.
The Agilent 1100 series mass spectra detection (MSD) single-quadrupole instrument was equipped with the orthogonal spray API-ES (Agilent Technologies, Palo Alto, Calif.). Nitrogen was used as nebulizing and drying gas. The pressure of the nebulizing gas, the flow of the drying gas, the capillary voltage, the fragmentor voltage, and the vaporization temperature were set at 40 psi, 9 L/min, 3000 V, 70 V, and 350° C., respectively. UV detection was monitored at 280 nm. The LC-ESI-MS determination was performed by operating the MSD in the positive ion mode. Spectra were acquired over the scan range m/z 100-1500 using a step size of 0.1 u. The percentage of not metabolized compound was calculated by comparison with reference solutions.

[4] = test system: Human breast adenocarcinoma cell line (MDA-MB-231); assay: Cytotoxicity test / growth inhibition, MDA-MB-231; type: cell-based; conditions: MDA-MB-231, 48 hours, cell counting
Protocol: (§4) Cells were purchased from American Type Culture Collection (ATCC, Manassas, Va., USA). The LNCaP (ATCC® CRL-1740™), A549 (ATCC® CCL-185™), MDA-MB-231 (ATCC® CRM-HTB-26™), 22Rv1 (ATCC® CRL-2505™), HCT-116 (ATCC® CCL-247™) and PC3 (ATCC® CRL-1435™) cells were maintained in Roswell Park Memorial Institute 1640 medium (RPMI; Euroclone, ECB9006L) supplemented with 10% fetal bovine serum (Euroclone; ECS0180L), 2 mM L-glutamine, 100 units/mL penicillin and […] streptomycin at 37° C. in an atmosphere of 5% CO2/air. DU145 (ATCC® HTB-81™), and DAOY (ATCC® HTB-186™) cells were maintained in Eagle's minimal essential medium (EMEM; Euro-clone, ECM0445L) supplemented with 10% fetal bovine serum (Euroclone; ECS0180L), 2 mM L-glutamine, 100 units/ml penicillin and […] streptomycin at 37° C. in an atmosphere of 5% CO2/air. SH-SY5Y (ATCC® CRL-2266™), DBRTG (ATCC® CRL-2020™), HeLa (ATCC® CCL-2™), HN6 cells (kindly provided by Dr Silvio Gutkind, UCSD Medical Center, Moores Cancer Center USA, Chen J. J et al, Oncotarget 2013, 4, 206-217)), U2OS (ATCC® HTB-96™), RD18 cells (kindly provided by Dr P. Boccuni Memorial Sloan-Kettering Cancer Center, New York, USA Vella S. et al. Clin Epigenetics. 2015 6; 7-82), cells were maintained in Dulbecco's modified Eagle's medium (DMEM; Euroclone, ECB7501L) supplemented with 10% fetal bovine serum (Euroclone; ECS0180L), 2 mM L-glutamine, 100 units/ml penicillin and 100 mg/mL streptomycin at 37° C. in an atmosphere of 5% CO2/air.
(§5) Cell lines were seeded at appropriate densities in 2 mL growth medium in 6-wells culture plates 24 hours before the treatment with the inhibitor compounds. After 24 h the culture medium was removed and fresh medium containing increasing concentrations of chemical compounds was added to cells. The fixed final concentrations were: 0.1 μM, 1 μM, 10 μM, 100 μM. DMSO was the vehicle used for dilution of the compounds and its final concentration on cells was less than 0.2%. Medium-only containing wells were included as controls. Cells were incubated 48 hours with drugs and, then, cell viability was evaluated.
(§6) Cells were detached from each well of the 6-wells plates with 300 μL of Trypsin and suspended in culture medium to a final volume of 1 mL. Cell viability was then assessed through cell counting. Cells were diluted in 1:50 ratio of an isotonic buffered diluent, Isoton (Backman Coulter), following the manufacturer's instructions, and counted using an automated cell counter (Z2 series Coulter Counter, Beckman Coulter). Each cell count was performed in three replicates. The values corresponding to the relative survival of cells in presence of each chemical compound at single concentrations were normalized to the untreated controls. Then, the half maximal inhibitory concentration (IC50) value, which represent the drug concentration that is required to induce a 50% growth inhibition in vitro, was calculated with GraphPad Prism 6.0 software using the best fitting sigmoid curve.

[5] = test system: Human Glioblastoma cell line (U87); assay: Cytotoxicity test / growth inhibition, U87; type: cell-based; conditions: U87, 48 hours, cell counting, mM
Protocol: as §5
as §2, with “Coulter). Each cell count was performed in three replicates. The values corresponding to the relative survival of cells in presence of each chemical compound at single concentrations were normalized to the untreated controls.” for “Coulter).”

[6] = test system: Human cervical carcinoma cell line (HeLa); assay: Cytotoxicity test / growth inhibition, HeLa; type: cell-based; conditions: 48 hours, cell counting, mM
Protocol: as §4, with “2015 6; 7-82), cells were maintained in Dulbecco's modified Eagle's medium (DMEM; Euroclone, ECB7501L) supplemented with 10% fetal bovine serum (Euroclone; ECS0180L), 2 mM L-glutamine, 100 units/ml penicillin and 100 mg/mL streptomycin at 37° C. in an atmosphere of 5% CO2/air.” left out
as §1, §2

Water Solubility Assay = type: physicochemical
Protocol: Water Solubility Assay. Each solid compound (1 mg) was added to 1 mL of water. The samples were shaked in a shaker bath at room temperature for 24-36 h. The suspensions were filtered through a 0.45 μm nylon filter (Acrodisc), and the solubilized compound determined by LC-MS-MS assay. For each compound the determination was performed in triplicate.
as §3

[7] = test system: Human Prostate cancer cell line (PC3); assay: Cytotoxicity test / growth inhibition, PC3; type: cell-based; conditions: PC3, 48 hours, cell counting
Protocol: as §4, with “2015 6; 7-82), cells were maintained in Dulbecco's modified Eagle's medium (DMEM; Euroclone, ECB7501L) supplemented with 10% fetal bovine serum (Euroclone; ECS0180L), 2 mM L-glutamine, 100 units/ml penicillin and 100 mg/mL streptomycin at 37° C. in an atmosphere of 5% CO2/air.” left out
as §1, §2

[8] = test system: Human head and neck squamous carcinoma cell line (HN6); assay: Cytotoxicity test / growth inhibition, HN6; type: cell-based; conditions: HN6, 48 hours, cell counting
Protocol: as §4, §5, §6

[9] = test system: Human Prostate cell line derived from brain metastasis (DU-145); assay: Cytotoxicity test / growth inhibition, DU-145; type: cell-based; conditions: DU-145, 48 hours, cell counting
Protocol: as §4, §5
as §2, with “Coulter). Each cell count was performed in three replicates. The values corresponding to the relative survival of cells in presence of each chemical compound at single concentrations were normalized to the untreated controls.” for “Coulter).”

[10] = test system: Human colorectal carcinoma cell line (HCT116); assay: Cytotoxicity test / growth inhibition, HCT116; type: cell-based; conditions: HCT-116, HCT116, 48 hours, cell counting
Protocol: as §4, with “2015 6; 7-82), cells were maintained in Dulbecco's modified Eagle's medium (DMEM; Euroclone, ECB7501L) supplemented with 10% fetal bovine serum (Euroclone; ECS0180L), 2 mM L-glutamine, 100 units/ml penicillin and 100 mg/mL streptomycin at 37° C. in an atmosphere of 5% CO2/air.” left out
as §1, §2

[11] = test system: Human adenocarcinomic alveolar basal epithelial cell line (A549); assay: Cytotoxicity test / growth inhibition, A549; type: cell-based; conditions: A549, 48 hours, cell counting
Protocol: as §4, §5, §6

[12] = test system: Human osteosarcoma cell line (U2OS); assay: Cytotoxicity test / growth inhibition, U2OS; type: cell-based; conditions: 48 hours, cell counting
Protocol: as §4, §5, §6

Q: Which “PAMPA GI (RM %) membrane retention” value [1] does the source give for CCCCc1cn(-c2ccc(NC(=O)Nc3ccccc3C)cc2)nn1 [Compound 20a, 1-(4-(4-butyl-1H-1,2,3-triazol-1-yl)phenyl)-3-o-tolylurea] here?
A: The value was 19.1%.

Q: And the IC50 [2]?
A: The IC50 was 149 µM.

Q: What about the Sability % [3] of the same compound?
A: Its Sability % is 99%.

Q: And the IC50 [4]?
A: Its IC50 is 18.7 µM.

Q: What about the IC50 [5] of the same compound?
A: The IC50 was 0.037 mM.

Q: And the IC50 [6]?
A: The IC50 was 0.054 mM.

Q: For CCCCn1nnc(-c2ccc(NC(=O)Nc3ccccc3C)cc2)n1 [Compound 49, 1-(4-(2-butyl-2H-tetrazol-5-yl)phenyl)-3-(o-tolyl)urea], which “PAMPA GI (RM %) membrane retention” value [1] is on record?
A: Its value is 24.8%.

Q: What about the Sability % [3] of the same compound?
A: The Sability % was 95.6%.

Q: And the LogS (Water Solubility Assay; from aqueous solubility)?
A: The LogS was less than −8.5.

Q: And the “Aq. Solub.” value (Water Solubility Assay; water, room temperature, 24-36 h)?
A: Its value is less than 0.001 µg/mL.

Q: What does the source list for CC(C)CCc1cn(-c2ccc(NC(=O)Nc3cccc4cnccc34)cc2)nn1 [Compound 55f, 1-(4-(4-isopentyl-1H-1,2,3-triazol-1-yl)phenyl)-3-(isoquinolin-5-yl)urea]?
A: IC50 [7]: 32.4 µM; IC50 [8]: 6.1 µM; IC50 [9]: 600 nM

Q: With CCCCc1nc(-c2ccc(NC(=O)Nc3ccccc3C(F)(F)F)cc2)no1 [Compound 106, 1-(4-(5-butyl-1,2,4-oxadiazol-3-yl)phenyl)-3-(2-(trifluoromethyl)phenyl)urea] as the compound, how does the IC50 [8] read?
A: The IC50 was 18.2 µM.

Q: And the IC50 [10]?
A: The IC50 was 36.8 µM.

Q: What about the IC50 [11] of the same compound?
A: The IC50 was 32.6 µM.

Q: What about the IC50 [12] of the same compound?
A: Its IC50 is 35.4 µM.
